{"source": "patent US20260053811A1", "about": "“METHODS OF TREATING HYPERTENSION IN OBESE SUBJECTS” (Mineralys Therapeutics, Inc., priority 2022, published 2026)", "format_in_all_cases": "in vivo, human", "key": {"[1]": {"test": "Pharmacokinetics (plasma Cmax, AUC, Tmax, t1/2, trough concentrations)", "conditions": "for AUC(0-t) / Cmax / concentration at 7 day / concentration at 28 day / concentration at 56 day / Tmax: human, plasma, oral; for concentration at 7 day: Day 7; for concentration at 56 day: Day 56; for Tmax: read-out: Tmax, Median", "source_text": "Pharmacokinetic endpoints of this study are PK parameters, including, of area under the plasma concentration versus time curve (AUC), maximum plasma concentration (Cmax), time to maximum concentration (Tmax), and half-life (t1/2) will be summarized descriptively for Randomization (baseline) and Study Weeks 1, 4, and 8\nPK/PD Analysis Set includes all subjects in the SAF who have sufficient data available for the analysis of pharmacokinetic and pharmacodynamic measurements. In the analyses based on PKPD, subjects will be analyzed according to the actual treatment received."}, "hypertensive subjects [2]": {"system": "hypertensive subjects", "test": "ACTH stimulation testing / adrenocortical insufficiency", "experimental": "11-deoxycorticosterone levels were unaffected. […] Due to supply chain disruption, the ability to perform ACTH stimulation testing was limited during the first part of the trial. However, the majority of subjects in Part 2 dosed with 100 mg QD, the maximum dose tested, had ACTH-stimulation testing performed at Baseline and after 8 weeks of treatment."}, "hypertensive subjects [3]": {"system": "hypertensive subjects", "test": "Vital signs, physical examination, ECG parameters", "conditions": "Parts 1 and 2", "description": "Safety endpoints of this study are: • (a) Incidence and severity of all spontaneously reported adverse events (AEs) • (b) Changes in vital signs (standing SBP, standing DBP, body temperature, heart rate, and respiratory rate) • (c) Changes in electrocardiogram parameters (including cardiac intervals: PR, QRS, QT, and corrected QT interval using Fridericia's formula) • (d) Changes in clinical laboratory assessments (hematology, chemistry, coagulation, and urinalysis) • (e) Change in office-measured SBP from Study Week 8 (end-of-treatment period to end of follow up (i.e. end of Study Week 12 for Part 1 and end of Study 10 for Part 2)."}, "[4]": {"conditions": "100 mg, 100 mg QD Part 1, read-out: Trough Plasma Concentration, Mean (SD)"}, "[5]": {"conditions": "100 mg, 100 mg QD Part 1, read-out: Trough Plasma Concentration, Median"}, "[6]": {"conditions": "100 mg, 100 mg QD Part 2, read-out: Trough Plasma Concentration, Mean (SD)"}, "[7]": {"conditions": "100 mg, 100 mg QD Part 2, read-out: Trough Plasma Concentration, Median"}, "[8]": {"conditions": "steady state Day 28, 12.5 mg BID"}}, "note": "Where two headings read alike, the source gives them in different places."}
{"compound": "CC(=O)N[C@H]1CC[C@H](NC(=O)CN2CCN(c3nncc(-c4ccc(C)cc4)n3)CC2)CC1", "note": "[Compound A HBr]", "values": [{"measurement": "AUC(0-t)", "setting": "[1]; 50 mg, steady state Day 28, 50 mg QD, read-out: AUC0-24, Mean (SD)", "value": 3390, "unit": "ng·h/mL"}, {"measurement": "AUC(0-t)", "setting": "[1]; 50 mg, steady state Day 28, 50 mg QD, read-out: AUC0-24, Median", "value": 3320, "unit": "ng·h/mL"}, {"measurement": "Cmax", "setting": "[1]; 50 mg, steady state Day 28, 50 mg QD, read-out: Cmax, Geo Mean", "value": 477, "unit": "ng/mL"}, {"measurement": "Cmax", "setting": "[1]; 50 mg, steady state Day 28, 50 mg QD, read-out: Cmax, Mean (SD)", "value": 518, "unit": "ng/mL"}, {"measurement": "Cmax", "setting": "[1]; 50 mg, steady state Day 28, 50 mg QD, read-out: Cmax, Median", "value": 488, "unit": "ng/mL"}, {"measurement": "AUC(0-t)", "setting": "[1]; 100 mg, 100 mg QD, Cohort 1, Day 28, read-out: Steady-state AUC0-24", "value": 14900, "unit": "ng·h/mL"}, {"measurement": "Cmax", "setting": "[1]; 100 mg, 100 mg QD, Cohort 1, Day 28, read-out: Steady-state Cmax", "value": 1620, "unit": "ng/mL"}, {"measurement": "AUC(0-t)", "setting": "[1]; 100 mg, 100 mg QD, Cohort 2, Day 28, read-out: Steady-state AUC0-24", "value": 7480, "unit": "ng·h/mL"}, {"measurement": "Cmax", "setting": "[1]; 100 mg, 100 mg QD, Cohort 2, Day 28, read-out: Steady-state Cmax", "value": 1360, "unit": "ng/mL"}, {"measurement": "AUC(0-t)", "setting": "[1]; 100 mg, 100 mg QD, Day 28, read-out: Steady-state AUC0-24, mean of Cohort 1 and Cohort 2", "value": "~11200", "unit": "ng·h/mL"}, {"measurement": "Cmax", "setting": "[1]; 100 mg, 100 mg QD, Day 28, read-out: Steady-state Cmax, mean of Cohort 1 and Cohort 2", "value": "~1490", "unit": "ng/mL"}, {"measurement": "concentration at 7 day", "setting": "[1]; [4]", "value": 299, "unit": "ng/mL"}, {"measurement": "concentration at 7 day", "setting": "[1]; [5]", "value": 28.2, "unit": "ng/mL"}, {"measurement": "concentration at 7 day", "setting": "[1]; [6]", "value": 151, "unit": "ng/mL"}, {"measurement": "concentration at 7 day", "setting": "[1]; [7]", "value": 29.8, "unit": "ng/mL"}, {"measurement": "concentration at 28 day", "setting": "[1]; 100 mg, Day 28, 100 mg QD Part 1, read-out: Trough Plasma Concentration, Geo Mean", "value": 50.7, "unit": "ng/mL"}, {"measurement": "concentration at 28 day", "setting": "[1]; 100 mg, Day 28, 100 mg QD Part 1, read-out: Trough Plasma Concentration, Mean (SD)", "value": 303, "unit": "ng/mL"}, {"measurement": "concentration at 28 day", "setting": "[1]; 100 mg, Day 28, 100 mg QD Part 1, read-out: Trough Plasma Concentration, Median", "value": 38.6, "unit": "ng/mL"}, {"measurement": "concentration at 28 day", "setting": "[1]; 100 mg, Day 28, 100 mg QD Part 2, read-out: Trough Plasma Concentration, Geo Mean", "value": 12.9, "unit": "ng/mL"}, {"measurement": "concentration at 28 day", "setting": "[1]; 100 mg, Day 28, 100 mg QD Part 2, read-out: Trough Plasma Concentration, Mean (SD)", "value": 26.4, "unit": "ng/mL"}, {"measurement": "concentration at 28 day", "setting": "[1]; 100 mg, Day 28, 100 mg QD Part 2, read-out: Trough Plasma Concentration, Median", "value": 19.9, "unit": "ng/mL"}, {"measurement": "concentration at 56 day", "setting": "[1]; 100 mg, 100 mg QD Part 1, read-out: Trough Plasma Concentration, Geometric Mean", "value": 72.1, "unit": "ng/mL"}, {"measurement": "concentration at 56 day", "setting": "[1]; [4]", "value": 258, "unit": "ng/mL"}, {"measurement": "concentration at 56 day", "setting": "[1]; [5]", "value": 30.4, "unit": "ng/mL"}, {"measurement": "concentration at 56 day", "setting": "[1]; 100 mg, 100 mg QD Part 2, read-out: Trough Plasma Concentration, Geometric Mean", "value": 20.3, "unit": "ng/mL"}, {"measurement": "concentration at 56 day", "setting": "[1]; [6]", "value": 23.2, "unit": "ng/mL"}, {"measurement": "concentration at 56 day", "setting": "[1]; [7]", "value": 20, "unit": "ng/mL"}, {"measurement": "AUC(0-t)", "setting": "[1]; 100 mg, steady state Day 28, 100 mg QD Part 1, read-out: AUC0-24, Geo Mean", "value": 10400, "unit": "ng·h/mL"}, {"measurement": "AUC(0-t)", "setting": "[1]; 100 mg, steady state Day 28, 100 mg QD Part 1, read-out: AUC0-24, Mean (SD)", "value": 14900, "unit": "ng·h/mL"}, {"measurement": "AUC(0-t)", "setting": "[1]; 100 mg, steady state Day 28, 100 mg QD Part 1, read-out: AUC0-24, Median", "value": 15000, "unit": "ng·h/mL"}, {"measurement": "Cmax", "setting": "[1]; 100 mg, steady state Day 28, 100 mg QD Part 1, read-out: Cmax, Geo Mean", "value": 1370, "unit": "ng/mL"}, {"measurement": "Cmax", "setting": "[1]; 100 mg, steady state Day 28, 100 mg QD Part 1, read-out: Cmax, Mean (SD)", "value": 1620, "unit": "ng/mL"}, {"measurement": "Cmax", "setting": "[1]; 100 mg, steady state Day 28, 100 mg QD Part 1, read-out: Cmax, Median", "value": 1590, "unit": "ng/mL"}, {"measurement": "AUC(0-t)", "setting": "[1]; 100 mg, steady state Day 28, 100 mg QD Part 2, read-out: AUC0-24, Geo Mean", "value": 6920, "unit": "ng·h/mL"}, {"measurement": "AUC(0-t)", "setting": "[1]; 100 mg, steady state Day 28, 100 mg QD Part 2, read-out: AUC0-24, Mean (SD)", "value": 7480, "unit": "ng·h/mL"}, {"measurement": "AUC(0-t)", "setting": "[1]; 100 mg, steady state Day 28, 100 mg QD Part 2, read-out: AUC0-24, Median", "value": 7090, "unit": "ng·h/mL"}, {"measurement": "Cmax", "setting": "[1]; 100 mg, steady state Day 28, 100 mg QD Part 2, read-out: Cmax, Geo Mean", "value": 1000, "unit": "ng/mL"}, {"measurement": "Cmax", "setting": "[1]; 100 mg, steady state Day 28, 100 mg QD Part 2, read-out: Cmax, Mean (SD)", "value": 1360, "unit": "ng/mL"}, {"measurement": "Cmax", "setting": "[1]; 100 mg, steady state Day 28, 100 mg QD Part 2, read-out: Cmax, Median", "value": 1250, "unit": "ng/mL"}, {"measurement": "Tmax", "setting": "[1]; steady state Day 28, 12.5 mg QD", "value": 1.08, "unit": "h"}, {"measurement": "Tmax", "setting": "[1]; steady state Day 28, 50 mg QD", "value": 2.01, "unit": "h"}, {"measurement": "Cmax, Geo Mean", "setting": "[1]; [8]", "value": 140, "unit": "ng/mL"}, {"measurement": "Cmax, Mean (SD)", "setting": "[1]; [8]", "value": "142 (28.3) ng/ml"}, {"measurement": "Cmax, Mean (SD)", "setting": "[1]; steady state Day 28, 25 mg BID", "value": "361 (175) ng/ml"}, {"measurement": "Tmax, Median", "setting": "[1]; steady state Day 28, 100 mg QD Part 1", "value": 1.02, "unit": "h"}, {"measurement": "Tmax, Median", "setting": "[1]; steady state Day 28, 100 mg QD Part 2", "value": 1, "unit": "h"}, {"measurement": "Adrenocortical insufficiency", "setting": "hypertensive subjects [2]; during the trial, listed as lorundrostat", "value": "no adrenocortical insufficiency occurred"}, {"measurement": "ACTH-stimulation results", "setting": "hypertensive subjects [2]; majority of Part 2 subjects, 100 mg QD, Baseline and after 8 weeks", "value": "no individuals with abnormal ACTH-stimulation results"}, {"measurement": "Vital signs, physical examination, ECG parameters", "setting": "hypertensive subjects [3]", "value": "no notable findings"}]}
